Laboratory results from patent US20100279984A1, “PHARMACEUTICAL COMPOSITIONS CONTAINING BENFOTIAMINE AND ONE OR ONE MORE PHARMACEUTICALLY ACTIVE AGENTS FOR THE TREATMENT OF PAIN CONDITIONS OF NEUROPATHIC ORIGIN” (Merck Patent GmbH, priority 2007, published 2010).

Columns and labels:
[1] = test system: righting, stepping, corneal and pinna reflexes; test: Side effect testing: righting, stepping, corneal and pinna reflexes before and after drug treatment; type: in vivo, female Wistar rats
Experimental: (§1) Drugs: Gabapentin was purchased from Research Biochemicals International (Natick, Mass., USA). Benfotiamine was purchased from Sigma. Gabapentin and benfotiamine were dissolved in saline and given at a volume ratio of 4 ml/kg. Study design: Rats received the oral administration of saline or increasing doses of gabapentin (30-300 mg/kg), benfotiamine (75-300 mg/kg) or the combination of gabapentin and benfotiamine 60 min before evaluation of threshold in spinal nerve injured rats. Observer was unaware of the treatment in each animal. Rats in all groups were tested for possible side effects such as reduction of righting, stepping, corneal and pinna reflexes before and after drug treatment.

[2] = test system: tactile allodynia induced by ligation of L5 and L6 spinal nerves; test: Antiallodynic activity: tactile allodynia (von Frey paw withdrawal threshold) in L5/L6 spinal nerve ligated rats (Kim and Chung model); type: in vivo, female Wistar rats; conditions: for ED30 (dose producing 30% of antiallodynia): drug alone, 60 min before threshold evaluation, ±SEM; for ED30 (dose producing 30% of antiallodynia) / reduction of tactile allodynia (in words): spinal nerve ligated rats; for reduction of tactile allodynia (in words): P<0.05
Experimental: The purpose of this study was to assess the possible synergistic interaction between gabapentin and benfotiamine in a neuropathic pain model in the rat (Kim, S. H. and Chung, J. M.: Pain 50: 355-363 (1992)). In addition, the possible synergistic interaction between gabapentin and benfotiamine was also assessed in rats with neuropathic pain. Neuropathic pain was induced by ligation of the left L5 and L6 spinal nerves of female Wistar rats. Tactile allodynia was determined by measuring paw withdrawal in response to probing with a series of calibrated von Frey filaments.
Female Wistar rats aged 6-7 weeks (weight range, 120-140 g) from our own breeding facilities were used in this study. Animals had free access to food and drinking water before experiments. Efforts were made to minimize animal suffering and to reduce the number of animals used. All experiments followed the Guidelines on Ethical Standards for Investigation of Experimental Pain in Animals (Zimmermann. M.: Pain 16: 109-110 (1983)). Additionally, the study was approved by the Institutional Animal Care and Use Committee (Centro de Investigacion y de Estudios Avanzados del Instituto Politecnico Nacional, Mexico, D.F., Mexico).
Evaluation of antiallodynic activity: Rats were prepared according to the method of Kim and Chung (Kim, S. H. and Chung, J. M.: Pain 50: 355-363 (1992)). Animals were anesthetized with a mixture of ketamine/xylazine (45-12 mg/kg, i.p.). After surgical preparation and exposure of the dorsal vertebral column, the L5 and L6 spinal nerves were exposed and tightly ligated with 6-0 silk suture distal to the dorsal root ganglion. For sham operated rats, the nerves were exposed but not ligated. The incisions were closed, and the animals were allowed to recover for 15 days. […] Tactile allodynia was determined by measuring paw withdrawal in response to probing with a series of calibrated fine filaments (von Frey filaments). The strength of the von Frey stimuli range from 0.4 to 15 g. Withdrawal thresholds were determined by increasing and decreasing stimulus strength eliciting paw withdrawal (Chaplan, S. R., et al.: J. Neurosci Meth. 53: 55-63 (1994)). All nerve-ligated rats were verified to be allodynic (responding to a stimulus of less than 4 g).
as §1
Data analysis and statistics: Curves were constructed plotting the threshold for paw withdrawal as a function of time. Threshold for paw withdrawal was also expressed as the % of antiallodynia. % antiallodynia was calculated with the following equation: % antiallodynia=((area under the withdrawal theshold against time curve (AUC) of the treatment−AUC saline)/(AUC sham−AUC saline)×100. The dose-response curves were fitted using least-squares linear regression and ED30 and its standard error (SEM) were calculated according to the method described by Tallarida (Tallarida, R. J.: Drug Synergism and Dose-Effect Data Analysis. 1st Ed., New York, Chapman and Hall/CRC, pp 1-72 (2000)).
For evaluation of the interaction between gabapentin and benfotiamine, isobolograms were constructed using ED30 values obtained when the drugs were administered alone or combined. We used ED30 instead of ED50 values because benfotiamine was not able to reach more than 30% of antiallodynia in the model. […]

Structure (SMILES) | effect on assessed reflexes (righting, stepping, corneal, pinna) ([1]; rat, in vivo, po) | antiallodynic effect compared with thiamine (in words) ([2]; oral administration, FIG. 5) | ED30 (dose producing 30% of antiallodynia) ([2]; oral administration) | reduction of tactile allodynia (in words) ([2]; oral administration) | % of antiallodynia reached in the model ([2]; oral benfotiamine 75-300 mg/kg, reason for using ED30 instead of ED50) | effect on assessed reflexes (righting, stepping, corneal, pinna) ([1]; oral, at the selected doses) | maximal antiallodynic effect ([2]; oral, at 300 mg/kg)
C/C(=C(\CCOP(=O)(O)O)SC(=O)c1ccccc1)N(C=O)Cc1cnc(C)nc1N [Benfotiamine] | no evidence of modification of assessed reflexes | higher antiallodynic effect than thiamine | 47.4 ± 10 mg/kg | modest dose-dependent reduction | ≤ 30% | – | –
NCC1(CC(=O)O)CCCCC1 [Gabapentin] | – | – | 16.6 ± 2.6 mg/kg | reduced in a dose-dependent manner | – | No reduction in the assessed reflexes | 100%
